# From patent US9259432B1, “Composition and methods for targeted delivery of a therapeutic compound to the brain or spinal cord of a subject for treatment of neurodegenerative diseases” (Parminder J. S. Vig, priority 2011, dated 2016)
# How the values were obtained:
# [1] = test system: differentiated GFP-ATXN1[82Q] SHSY5Y cells; assay: Oxyblot of S100B induced oxidized proteins; assay type: cell-based; settings: 50 μM pretreatment 1 hr, then 5 μM S100B 2 hrs; oxidized protein/β-tubulin
# Procedure: FIG. 16: (a) GFP-ATXN1[82Q] and (b) GFP-ATXN1[30Q] SHSY5Y stable cells were placed on 12-well plates and subjected to treatment with 25 nM TPA for 3 days to produce differentiated SHSY5Y cell lines. Next, the cells were pretreated with 50 μM Synb1-ELP-TRTK for 1 hr then treated with 5 μM S100B for 2 hrs or treated with 150 μM H2O2 for 2 hrs, where control cells were treated with serum free media for 3 hrs. Then the cells were lysed and analyzed with the Oxyblot kit and a β-tubulin antibody. Shown is the resulting oxyblot/western blot data. (c) Optical densities of the protein bands were taken using ImageJ software. Graphs shown the ratio of oxidized protein/β-tubulin protein normalized to the control. Statistics were taken using the student's t-test. * GFP-ATXN1[82Q]: S100B vs Synb1-ELP-TRTK+S100B, P<0.05. ψ GFP-ATXN1[82Q]: H2O2 vs GFP-ATXN1[30Q]: H2O2, P<0.05.
# GFP-ATXN1[82Q] or GFP-ATXN1[30Q] stable cells were placed on 12-well plates at a concentration of 60,000 cells per well. Cells were treated with 25 nM TPA for 3 days to produce differentiated SHSY5Y cell lines. […] Cell lysates were analyzed with the Oxyblot kit according to manufacturer's protocol ([…]) and with a β-tubulin antibody (Sigma), where 5 μgs of protein was loaded in each well of 4-20% acrylamide gel (Bio-Rad Laboratories, Hercules, Calif., USA). […]
# SCA1/+ mice = assay: Bar cross test; assay type: in vivo; settings: IP, 10 doses every other day for 3 wks, with and without heat
# Procedure: A minimum of five 2 wks old SCA1/+mice were treated IP with vehicle (saline), ELP-GGC or ELP-TRTK peptides multiple times (total 10 doses) every other day for 3 wks. Some animals were subjected to hyperthermia. After completion of the treatments, animals were subjected to behavioral tests.
# Bar cross test. The bar-crossing apparatus for testing balance and fine motor coordination consisted of a horizontal U-shaped platform made of wood supported on 30 cm legs. The two parallel 30-cm-long bars of the U were wide enough (18 mm) for the mice to walk easily, whereas the piece connecting them, the challenge bar, was also 30 cm long but only 2 mm wide. Animals were placed on one of the wide bars and allowed to move about on the apparatus for 5 min. After the spontaneous activity portion of the bar cross test, animal were subjected to a forced task. In this task, the mice were placed in the middle of the challenge bar in order to force a crossing attempt. A maximum of 120 sec was allowed for mice to stay on the bar, and the latency to fall (on a padded surface; height=30 cm) or cross (Cross) successfully was measured in seconds. The surface of the apparatus was cleaned with mild soap solution and air-dried between mice. […]
# [2] = IgG levels in plasma by ELISA; assay type: in vivo, mice; settings: 100 mg/kg, treated multiple times, no heat; samples diluted 1:50,000
# Procedure: IgG levels in plasma of mice treated withof SynB1-ELP-GGC (100 mg/kg) and SynB1-ELP-TRTK (100 mg/kg) were obtained. Mice were treated multiple times without induction of hyperthermia. IgG levels were measured using ELISA. Samples were diluted 1:50,000 and compared against a standard curve generated using a mouse IgG standard.
substance,measurement,setting,value
"Synb1-ELP-TRTK: thermally responsive S100B inhibitory polypeptide: Synb1 cell penetrating peptide, elastin-like polypeptide (ELP) and TRTK12 peptide fused",S100B's impact on the level of oxidized proteins,[1],significantly blocked
same,"hyperactivity, slip frequency, Sniff Up and down frequency",SCA1/+ mice,suppresses these activities
same,"IgG level in plasma, OD Value",[2],0.2552
